As a reminder, the IC50 is the concentration that gives 50% inhibition.

This is an account of results in ChEMBL document CHEMBL4130465, “Berchemiosides A-C, 2-Acetoxy-ω-phenylpentaene Fatty Acid Triglycosides from the Unripe Fruits of Berchemia berchemiifolia” (J Nat Prod, 2017).

Molecules are shown by their SMILES. Active and inactive are the calls of the source. No cut-off for these calls is given here.

Series [1] addresses Xanthine dehydrogenase/oxidase (Homo sapiens, UniProt P47989). Put plainly: Inhibition of xanthine oxidase (unknown origin) using xanthine as substrate pretreated for 10 mins followed by substrate addition measured every 2 mins for 6 mins. The conditions noted are these: for inhibition (INH): human, 0.1 h.
The subject of series [2] is HCT-116. The series is described as follows: Cytotoxicity against human HCT116 cells after 48 hrs by MTT assay. It is filed as functional, cell-based. The settings on record: HCT-116, 48 h. In general terms: Tetrazolium assays rely on reduction of a dye to a coloured formazan, in cell work by metabolically active cells.
Series [3] deals with HCT-116. The series is described as follows: Cytotoxicity against human HCT116 cells up to 100 uM after 48 hrs by MTT assay. It is filed as functional, cell-based.

Chain of Xanthine dehydrogenase/oxidase (P47989 whole entry): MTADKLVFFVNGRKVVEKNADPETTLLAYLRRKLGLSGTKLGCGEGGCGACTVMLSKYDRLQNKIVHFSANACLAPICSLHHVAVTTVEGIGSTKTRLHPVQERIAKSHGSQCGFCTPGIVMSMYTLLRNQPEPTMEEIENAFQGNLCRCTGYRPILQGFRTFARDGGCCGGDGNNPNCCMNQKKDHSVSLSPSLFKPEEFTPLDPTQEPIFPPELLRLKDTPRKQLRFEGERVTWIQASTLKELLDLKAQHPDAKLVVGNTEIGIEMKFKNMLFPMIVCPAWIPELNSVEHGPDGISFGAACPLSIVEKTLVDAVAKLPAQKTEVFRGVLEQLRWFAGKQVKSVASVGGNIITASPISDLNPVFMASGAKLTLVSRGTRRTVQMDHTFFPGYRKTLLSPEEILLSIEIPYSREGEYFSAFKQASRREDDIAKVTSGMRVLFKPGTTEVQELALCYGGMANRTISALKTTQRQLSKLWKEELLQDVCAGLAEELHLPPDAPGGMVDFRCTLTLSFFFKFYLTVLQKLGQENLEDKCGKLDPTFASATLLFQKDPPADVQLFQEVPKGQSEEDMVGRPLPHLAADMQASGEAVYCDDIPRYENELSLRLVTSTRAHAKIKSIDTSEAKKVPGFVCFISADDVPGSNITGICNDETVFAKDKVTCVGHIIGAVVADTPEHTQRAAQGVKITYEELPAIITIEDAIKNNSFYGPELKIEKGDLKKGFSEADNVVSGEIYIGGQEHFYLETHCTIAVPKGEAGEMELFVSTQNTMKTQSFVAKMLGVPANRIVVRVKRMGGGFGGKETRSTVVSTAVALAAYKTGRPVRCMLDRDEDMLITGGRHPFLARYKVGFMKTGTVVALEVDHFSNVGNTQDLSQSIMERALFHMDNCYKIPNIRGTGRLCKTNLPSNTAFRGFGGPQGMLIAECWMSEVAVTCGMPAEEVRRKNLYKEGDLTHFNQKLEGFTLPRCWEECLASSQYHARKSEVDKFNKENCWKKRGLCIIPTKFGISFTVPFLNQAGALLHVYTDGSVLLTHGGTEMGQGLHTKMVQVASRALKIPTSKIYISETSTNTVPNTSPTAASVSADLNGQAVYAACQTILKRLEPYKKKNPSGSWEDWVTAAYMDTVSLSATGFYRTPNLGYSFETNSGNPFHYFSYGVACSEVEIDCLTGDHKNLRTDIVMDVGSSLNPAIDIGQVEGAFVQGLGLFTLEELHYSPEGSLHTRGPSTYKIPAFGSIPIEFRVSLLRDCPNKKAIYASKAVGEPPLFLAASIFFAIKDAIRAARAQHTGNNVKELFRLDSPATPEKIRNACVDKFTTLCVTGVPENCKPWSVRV

For the compound `O=C1C[C@H](c2ccc(O)c(O)c2)Oc2cc(O)cc(O[C@@H]3O[C@H](CO)[C@@H](O)[C@H](O)[C@H]3O[C@@H]3O[C@H](CO)[C@@H](O)[C@H](O)[C@H]3O)c21`, the “inhibition (INH)” value in series [1] was “Not Active”.

For the compound `O=C1C[C@H](c2ccc(O)cc2)Oc2cc(O)cc(O[C@@H]3O[C@H](CO)[C@@H](O)[C@H](O)[C@H]3O[C@@H]3O[C@H](CO)[C@@H](O)[C@H](O)[C@H]3O)c21`, the IC50 in series [1] was found to be 95.4 µM. `CC(=O)O[C@@]12CO[C@@H]1C[C@H](O)[C@@]1(C)C(=O)[C@H](O)C3=C(C)[C@@H](OC(=O)[C@H](O)[C@@H](NC(=O)OC(C)(C)C)c4ccccc4)C[C@@](O)([C@@H](OC(=O)c4ccccc4)[C@H]21)C3(C)C` [DOCETAXEL ANHYDROUS] gave an IC50 in the series with HCT-116 [2] of 0.13 µM.

In the case of `CC(=O)O[C@H](CCC/C=C/C=C/C=C/C=C/C=C/c1ccc(O[C@@H]2O[C@H](CO[C@@H]3O[C@@H](C)[C@H](O)[C@@H](O[C@@H]4O[C@H](COC(=O)/C=C/c5ccccc5)[C@@H](O)[C@H](O)[C@H]4O)[C@H]3O)[C@@H](O)[C@H](O)[C@H]2O)cc1)C(=O)O`, the result in the series on HCT-116 [3] was inactive.

Regarding `CC(=O)O[C@H](CCC/C=C/C=C/C=C\C=C/C=C/c1ccc(O[C@@H]2O[C@H](CO[C@@H]3O[C@@H](C)[C@H](O)[C@@H](O[C@@H]4O[C@H](CO)[C@@H](O)[C@H](O)[C@H]4O)[C@H]3O)[C@@H](O)[C@H](O)[C@H]2O)cc1)C(=O)O`, the outcome in the series on HCT-116 [3] was inactive. Regarding `COc1cc2oc(-c3ccc(O)cc3)cc(=O)c2c(O)c1[C@@H]1O[C@H](CO)[C@@H](O)[C@H](O)[C@H]1O` [SWERTISIN], in series [1], the “inhibition (INH)” value is “Not Active”.

On to `COc1cc2oc(-c3ccc(O)c(O)c3)cc(=O)c2c(O)c1[C@@H]1O[C@H](CO)[C@@H](O)[C@H](O)[C@H]1O`, for which, in series [1], the “inhibition (INH)” value was “Not Active”. The same measure, in the same setting: the entry for `O=C1C[C@@H](c2ccc(O)c(O)c2)Oc2cc(O)cc(O[C@@H]3O[C@H](CO)[C@@H](O)[C@H](O)[C@H]3O[C@@H]3O[C@H](CO)[C@@H](O)[C@H](O)[C@H]3O)c21` is “Not Active”. With `C[C@@H]1O[C@@H](OC[C@H]2O[C@@H](Oc3ccc(C=O)cc3)[C@H](O)[C@@H](O)[C@@H]2O)[C@H](O)[C@H](O[C@@H]2O[C@H](COC(=O)/C=C/c3ccccc3)[C@@H](O)[C@H](O)[C@H]2O)[C@H]1O`, in the series on HCT-116 [3], the result was inactive. Same read-out and setting: for `CC(=O)O[C@H](CCC/C=C/C=C/C=C/C=C/C=C/c1ccc(O[C@@H]2O[C@H](CO[C@@H]3O[C@@H](C)[C@H](O)[C@@H](O[C@@H]4O[C@H](COC(=O)/C=C/C=C/c5ccccc5)[C@@H](O)[C@H](O)[C@H]4O)[C@H]3O)[C@@H](O)[C@H](O)[C@H]2O)cc1)C(=O)O` the value was “inactive”. On to `O=c1c(O[C@@H]2O[C@H](CO)[C@@H](O)[C@H](O)[C@H]2O[C@@H]2O[C@H](CO)[C@@H](O)[C@H](O)[C@H]2O)c(-c2ccc(O)c(O)c2)oc2cc(O)cc(O)c12`, for which the “inhibition (INH)” value in series [1] was “Not Active”.
